Test [1] deals with motor neurons derived from ALS patient iPSC line with pathogenic mutation in TARDBP. Description: Optopatch excitability assay in motor neurons derived from ALS patient iPSC line (TARDBP mutation). In kind it is cell-based, human. Particulars: for EC50: Homo sapiens, iPSC, TARDBP line, blue LED 5.1 mW/cm^2, mean, read-out: EC50, inhibition of excitability (action potential frequency). The source says: (§1) Optopatch Excitability Assay for Example 1 in Motor Neurons Derived From ALS Patient iPSC Lines
(§2) Altered excitability of cortical neurons and lower motor neuron is an important factor in the pathophysiology of ALS (See, for example, K. Kanai, et. al., J Neurol Neurosurg Psychiatry, 83, 734-738 (2012); P. Menon, et. al., Eur Neurol., 24, 816-824 (2017)). All-optical electrophysiology (“Optopatch”) was used to evaluate excitability in cultured motor neurons derived from iPSC lines from two ALS patients with different pathogenic mutations.
(§3) Cell Culture: The two iPSC lines are derived from one patient with a pathogenic mutation in TARDBP and one patient with a pathogenic repeat expansion mutation in C9orf72, respectively. Motor neurons are generated from these lines by a 2D differentiation method adapted from the dual SMAD inhibition neuronal patterning protocol (See S. M. Chambers, et. al., Nat Biotechnol., 27, 275-280 (2009)) by inclusion of motor neuron morphogens. Differentiation is verified by visual inspection, karyotyping and staining for beta-III-tubulin and the nuclear motor neuron marker ISL1. Neurons are cultured on a monolayer of mouse glia in mTeSR (Stem Cell Technologies), supplemented with 10 ng/mL BDNF. Forty-eight hours prior to imaging, 100 nM trans-retinal was added to the medium.
(§4) Transduction with Optopatch vectors: At 15 days in vitro, cultured motor neurons are transduced with a lentiviral vector to drive the co-expression of the actuator CheRiff-mOrange2 and the voltage indicator QuasAr3-Citrine (for details see D. R. Hochbaum, et. al., Nat. Methods, 11, 825-833 (2014)). Forty-eight hours prior to imaging, 100 nM trans-retinal was added to the medium.
Solutions: Recordings are performed in Brainphys™ imaging buffer with 3 mM potassium. The gap junction blocker 2-aminoethoxydiphenyl borate (50 μM) is added to eliminate electrical coupling between cells, and NBQX (10 μM), gabazine (20 μM), and AP5 (25 μM) were used to block synaptic transmission.
Optopatch Recordings: Five days after transduction, Optopatch imaging is performed on a custom, ultra-widefield fluorescence microscope at RT. Motor neurons are illuminated with red laser excitation (200 W/cm^2; 635 nm) to monitor changes in QuasAr fluorescence and blue LED excitation (0-127 mW/cm^2, 470 nm) to depolarize the cell membrane with CheRiff. A custom blue light stimulus protocol is used consisting of: i) 2 sec of red illumination only to monitor spontaneous activity, ii) 5×500 msec steps of increasing blue light intensity and iii) 2×2 sec linearly increasing blue light ramps, each with a different maximum blue intensity. Optopatch data are recorded using a Hamamatsu ORCA-Flash 4.0 sCMOS camera with a 1 kHz frame rate. The field of view size is 4 mm×0.5 mm. Custom control software written in MATLAB is used to control illumination protocols and record all movies. To examine acute effects of Kv7.2/7.3 potentiators, neurons are incubated with test compound for 15 min prior to imaging.
Data Analysis: Image segmentation analysis is performed using temporal Principle Component Analysis and spatial-temporal Independent Component Analysis to isolate individual neurons. A spike-finding algorithm is used to find action potentials, and data are analyzed for compound effects on mean firing rate, adaptation, rheobase and action potential waveform shape by comparing to vehicle controls (for detail, see C. A. Werley, et. al., Curr. Protoc. Pharmacol., 78, 11.20.1-11.20.24. (2017)).
Subjected to the protocol described above, the primary effect of the Example 1 is on the action potential firing rate in response to low intensity blue light illumination.
Fitting a 4-parameter logistic equation to the data may be used to determine the potency (EC50) of the effect of Example 1 on action potential frequency. Results are shown in Table 1 for two separate differentiation efforts each for the lines derived from the patients carrying the TARDBP and C9orf72 mutations.

Test [2] concerns motor neurons derived from ALS patient iPSC line with pathogenic repeat expansion mutation in C9orf72. Description: Optopatch excitability assay in motor neurons derived from ALS patient iPSC line (C9orf72 repeat expansion). Particulars: Homo sapiens, read-out: EC50, inhibition of excitability (action potential frequency). In kind it is cell-based.
From the text: as §1, §2, §3, §4
Solutions: Recordings are performed in Brainphys™ imaging buffer with 3 mM potassium. […]
Optopatch Recordings: Five days after transduction, Optopatch imaging is performed on a custom, ultra-widefield fluorescence microscope at RT. Motor neurons are illuminated with red laser excitation (200 W/cm^2; 635 nm) to monitor changes in QuasAr fluorescence and blue LED excitation (0-127 mW/cm^2, 470 nm) to depolarize the cell membrane with CheRiff. […] Optopatch data are recorded using a Hamamatsu ORCA-Flash 4.0 sCMOS camera with a 1 kHz frame rate. […]
Data Analysis: Image segmentation analysis is performed using temporal Principle Component Analysis and spatial-temporal Independent Component Analysis to isolate individual neurons. A spike-finding algorithm is used to find action potentials, and data are analyzed for compound effects on mean firing rate, adaptation, rheobase and action potential waveform shape by comparing to vehicle controls (for detail, see C. A. Werley, et. al., Curr. Protoc. Pharmacol., 78, 11.20.1-11.20.24. (2017)). […]

Like-named read-outs stand apart in the source and are kept apart here.

Usually EC50 stands for the midpoint of the concentration-response curve. On to `CC(C)(C)[C@H](O)CNC(=O)NCc1ccnc(OCC(F)(F)F)c1` [Example 1, 1-[(2S)-2-hydroxy-3,3-dimethyl-butyl]-3-[[2-(2,2,2-trifluoroethoxy)-4-pyridyl]methyl]urea], for which the concentration for a half-maximal effect (EC50) amounted to 150 nM in test [1] (Diff 1); 150 nM in test [1] (Diff 2); 170 nM in test [2] (Diff 1, blue LED 5.1 mW/cm^2, mean); 200 nM in test [2] (Diff 2, blue LED 5.1 mW/cm^2, mean). The “effect on action potential frequency” value in test [1] (blue LED illumination intensity 5.1 mW/cm^2, text does not distinguish the two lines) was “decreased action potential frequency in a concentration-dependent manner”. For the same molecule, the “observed effects compared with flupirtine” value in test [1] (both patient lines, vs known Kv7.2/7.3 potentiator flupirtine) is on record as “qualitatively similar but more potent”.

(Values after patent US12344584B2, “KCNQ potentiators” (Eli Lilly and Company, priority 2019, dated 2025).)
